A word on the IC50: it is the midpoint of a concentration-inhibition curve. Lower therefore signals inhibition by little substance.

In one assay the test system is BMP4. Briefly: BMP4 cell assay (BMP reporter). The class given is cell-based. As to conditions: Table 2.
The target of the next assay is T1, ALK2/ACVR1 (Homo sapiens, UniProt Q04771).
T1 sequence (Q04771 21-509): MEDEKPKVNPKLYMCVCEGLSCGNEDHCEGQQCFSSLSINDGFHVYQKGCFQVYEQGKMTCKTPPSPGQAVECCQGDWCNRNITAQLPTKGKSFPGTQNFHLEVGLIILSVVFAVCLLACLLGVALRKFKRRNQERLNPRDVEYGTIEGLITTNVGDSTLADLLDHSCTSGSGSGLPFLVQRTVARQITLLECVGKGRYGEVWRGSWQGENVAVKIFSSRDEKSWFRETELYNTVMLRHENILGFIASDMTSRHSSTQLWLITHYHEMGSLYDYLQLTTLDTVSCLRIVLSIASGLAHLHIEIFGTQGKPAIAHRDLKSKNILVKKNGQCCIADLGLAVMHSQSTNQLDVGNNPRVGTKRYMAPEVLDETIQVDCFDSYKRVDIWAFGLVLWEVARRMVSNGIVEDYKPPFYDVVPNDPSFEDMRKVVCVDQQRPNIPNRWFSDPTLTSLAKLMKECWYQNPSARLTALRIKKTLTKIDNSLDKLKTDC
Briefly: BMP Type 1 receptor assay, ALK2/ACVR1. Type of assay: biochemical.

A further assay concerns the target ALK3/BMPRR1A (Homo sapiens, UniProt P36894). Briefly: BMP Type 1 receptor assay, ALK3/BMPRR1A. Type of assay: biochemical.
For another assay, the target named is ALK1/ACVR1 (Homo sapiens, UniProt P37023). The assay is described as follows: BMP Type 1 receptor assay, ALK1/ACVR1. The class given is biochemical.
Another assay addresses T2, ALK5/TGFBR1 (Homo sapiens, UniProt P36897).
T2 sequence (P36897 34-503): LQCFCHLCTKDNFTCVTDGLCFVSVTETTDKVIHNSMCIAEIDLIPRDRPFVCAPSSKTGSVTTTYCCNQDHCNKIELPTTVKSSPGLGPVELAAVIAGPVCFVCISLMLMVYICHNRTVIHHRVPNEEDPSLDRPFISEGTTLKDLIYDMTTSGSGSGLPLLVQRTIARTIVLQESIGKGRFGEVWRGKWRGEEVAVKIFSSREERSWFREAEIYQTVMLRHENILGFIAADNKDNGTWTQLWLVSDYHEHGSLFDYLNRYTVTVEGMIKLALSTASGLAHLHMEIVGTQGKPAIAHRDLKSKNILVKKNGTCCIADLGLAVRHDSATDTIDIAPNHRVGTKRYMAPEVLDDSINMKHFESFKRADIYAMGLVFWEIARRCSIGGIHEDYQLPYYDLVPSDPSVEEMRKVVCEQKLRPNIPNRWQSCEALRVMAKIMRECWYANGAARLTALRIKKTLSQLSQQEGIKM
The assay is described as follows: BMP Type 1 receptor assay, ALK5/TGFBR1. Type of assay: biochemical.

In a further assay the target is ALK6/BMPR1B (Homo sapiens, UniProt O00238). The assay is described as follows: BMP Type 1 receptor assay, ALK6/BMPR1B. Type of assay: biochemical.
Sequence of ALK6/BMPR1B (O00238 14-502): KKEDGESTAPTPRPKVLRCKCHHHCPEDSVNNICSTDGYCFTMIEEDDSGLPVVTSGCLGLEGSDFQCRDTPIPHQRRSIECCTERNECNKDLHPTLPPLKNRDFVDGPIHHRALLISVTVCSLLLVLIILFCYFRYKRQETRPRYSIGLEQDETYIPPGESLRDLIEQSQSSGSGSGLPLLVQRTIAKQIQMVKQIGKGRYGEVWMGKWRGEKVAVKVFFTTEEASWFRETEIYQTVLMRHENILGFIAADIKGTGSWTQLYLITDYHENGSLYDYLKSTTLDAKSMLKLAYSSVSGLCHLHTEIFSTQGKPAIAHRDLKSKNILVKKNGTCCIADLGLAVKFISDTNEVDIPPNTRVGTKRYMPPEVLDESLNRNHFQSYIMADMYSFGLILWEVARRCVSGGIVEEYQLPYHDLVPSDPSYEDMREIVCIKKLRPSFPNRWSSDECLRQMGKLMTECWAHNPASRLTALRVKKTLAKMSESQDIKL

Sequence of ALK3/BMPRR1A (P36894 24-532): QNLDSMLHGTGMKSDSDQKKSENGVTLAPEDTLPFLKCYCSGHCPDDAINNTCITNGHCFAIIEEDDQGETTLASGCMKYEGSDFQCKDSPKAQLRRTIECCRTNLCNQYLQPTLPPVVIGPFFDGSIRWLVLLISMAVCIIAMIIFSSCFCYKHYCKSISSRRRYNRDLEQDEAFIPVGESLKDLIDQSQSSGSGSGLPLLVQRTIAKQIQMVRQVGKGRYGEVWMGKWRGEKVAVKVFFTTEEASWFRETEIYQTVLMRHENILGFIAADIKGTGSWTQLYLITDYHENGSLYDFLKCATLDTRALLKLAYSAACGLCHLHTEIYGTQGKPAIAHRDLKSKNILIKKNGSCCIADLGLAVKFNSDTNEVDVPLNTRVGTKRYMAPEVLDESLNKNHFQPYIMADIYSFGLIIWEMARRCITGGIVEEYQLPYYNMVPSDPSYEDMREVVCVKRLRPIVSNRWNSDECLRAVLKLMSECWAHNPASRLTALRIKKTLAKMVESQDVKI
Sequence of ALK1/ACVR1 (P37023 22-503): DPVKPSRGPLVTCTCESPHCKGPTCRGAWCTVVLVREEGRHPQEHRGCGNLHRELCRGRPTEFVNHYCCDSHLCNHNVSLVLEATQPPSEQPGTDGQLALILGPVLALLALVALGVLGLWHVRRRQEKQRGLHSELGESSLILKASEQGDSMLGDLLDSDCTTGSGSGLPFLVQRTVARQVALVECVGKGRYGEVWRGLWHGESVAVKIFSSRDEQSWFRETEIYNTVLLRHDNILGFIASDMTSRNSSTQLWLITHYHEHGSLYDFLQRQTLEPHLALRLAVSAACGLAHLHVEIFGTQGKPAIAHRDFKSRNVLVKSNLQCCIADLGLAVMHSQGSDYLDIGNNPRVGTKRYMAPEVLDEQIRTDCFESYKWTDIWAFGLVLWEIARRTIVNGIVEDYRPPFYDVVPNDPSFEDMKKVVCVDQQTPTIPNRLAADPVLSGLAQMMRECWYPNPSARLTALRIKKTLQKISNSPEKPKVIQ

On to `CC(C)Oc1ccc(-c2cc3ncc(-c4ccnc5ccccc45)n3cn2)cc1`, for which the IC50 in the assay with BMP4 amounted to 8100 nM.

Turning to `c1ccc2c(-c3cnc4cc(-c5ccc6c(c5)OCCO6)ccn34)ccnc2c1` [Entry 5, 4-(7-(2,3-dihydrobenzo[b][1,4]dioxin-6-yl)imidazo[1,2-a]pyridin-3-yl)quinoline], the IC50 against ALK2/ACVR1 was determined as 270 nM.

The compound `c1ccc2c(-c3cnc4cc(-c5ccc6c(c5)OCCO6)ccn34)ccnc2c1` [drawing 207] returned an IC50 with BMP4 of 2890 nM.

Turning to `c1ccc2c(-c3cnc4cc(-c5ccc(OCCN6CCOCC6)cc5)ccn34)ccnc2c1` [Example 1, 4-(2-(4-(3-(quinolin-4-yl)imidazo[1,2-a]pyridin-7-yl)phenoxy)ethyl)morpholine], in the assay with BMP4, 62 nM corresponded to half-maximal inhibition (IC50).

On ALK2/ACVR1, `Cc1cc(-c2cnc3cc(-c4ccc(N5CCN(C)CC5)cc4)ccn23)c2ccccc2n1` [Entry 51, 2-methyl-4-(7-(4-(4-methylpiperazin-1-yl)phenyl)imidazo[1,2-a]pyridin-3-yl)quinoline] returned an IC50 of 26.5 nM.

At ALK3/BMPRR1A, `CN1CCN(c2ccc(-c3ccn4c(-c5csc6nccnc56)cnc4c3)cc2)CC1` [Entry 60, 7-(7-(4-(4-methylpiperazin-1-yl)phenyl)imidazo[1,2-a]pyridin-3-yl)thieno [2,3-b]pyrazine] yielded a 50% inhibitory concentration (IC50) of 40.1 nM.

On to `CC(C)Oc1ccc(-c2ccn3c(-c4ccnc(Cl)c4)cnc3c2)cc1` [Entry 25, 3-(2-chloropyridin-4-yl)-7-(4-isopropoxyphenyl)imidazo[1,2-a]pyridine], for which the IC50 was determined as 155 nM against ALK2/ACVR1; 87 nM at ALK1/ACVR1; 118 nM on ALK3/BMPRR1A; 13600 nM at ALK5/TGFBR1; 340 nM against ALK6/BMPR1B.

In turn, `CN1CCN(c2ccc(-c3ccn4c(-c5ccnc6ccsc56)cnc4c3)cc2)CC1` [Entry 62, 7-(7-(4-(4-methylpiperazin-1-yl)phenyl)imidazo[1,2-a]pyridin-3-yl) thieno[3,2-b]pyridine] displayed an IC50 on ALK3/BMPRR1A of 50.8 nM.

As to `c1ccc(-c2cnc3cc(-c4ccc(OCCN5CCOCC5)cc4)ccn23)cc1` [Entry 30, 4-(2-(4-(3-phenylimidazo[1,2-a]pyridin-7-yl)phenoxy)ethyl)morpholine], the IC50 on ALK2/ACVR1 was 645 nM; at ALK5/TGFBR1 it was greater than 100000 nM.

For the compound `CC(C)Oc1ccc(-c2ccn3c(-c4cn[nH]c4)cnc3c2)cc1` [Entry 42, 7-(4-isopropoxyphenyl)-3-(1H-pyrazol-4-yl)imidazo[1,2-a]pyridine], the IC50 on ALK2/ACVR1 was 1970 nM; against ALK1/ACVR1 it was 494 nM; against ALK3/BMPRR1A, 92 nM; against ALK5/TGFBR1 it was greater than 100000 nM; against ALK6/BMPR1B, 895 nM.

`CC(C)Oc1ccc(-c2ccn3c(-c4ccnc(F)c4)cnc3c2)cc1` [Entry 26, 3-(2-fluoropyridin-4-yl)-7-(4-isopropoxyphenyl)imidazo[1,2-a]pyridine]: the figures for the IC50 against ALK2/ACVR1 and on ALK5/TGFBR1 were 265 nM and greater than 100000 nM, respectively.

As for `Cc1cc(-c2cnc3cc(-c4ccc(OC(C)C)cc4)ccn23)ccn1` [Entry 45, 7-(4-isopropoxyphenyl)-3-(2-methylpyridin-4-yl)imidazo[1,2-a]pyridine], the IC50 on ALK2/ACVR1 is 149 nM; against ALK5/TGFBR1, 3490 nM.

As to `CN1CCN(c2ccc(-c3ccn4c(-c5ccnc6ccccc56)cnc4c3)cc2)CC1` [Entry 21, 4-(7-(4-(4-methylpiperazin-1-yl)phenyl)imidazo[1,2-a]pyridin-3-yl)quinoline], the IC50 stood at 7.9 nM against ALK3/BMPRR1A, 3960 nM at ALK5/TGFBR1 and 11 nM on ALK6/BMPR1B.

`Cc1cc(-c2cnc3cc(-c4ccc(N5CCN(C)CC5)cc4)ccn23)ccn1` [Entry 67, 7-(4-(4-methylpiperazin-1-yl)phenyl)-3-(2-methylpyridin-4-yl)imidazo[1,2-a]pyridine] showed an IC50 against ALK2/ACVR1 of 20 nM.

On ALK2/ACVR1, `CN1CCN(c2ccc(-c3ccn4c(-c5ccncc5)cnc4c3)cc2)CC1` [Entry 66, 7-(4-(4-methylpiperazin-1-yl)phenyl)-3-(pyridin4-yl)imidazo[1,2-a]pyridine] gave an IC50 of 46 nM.

(Values after US20200054643A1, “FUSED HETEROCYCLIC COMPOUNDS AS SELECTIVE BMP INHIBITORS” (Vanderbilt University, priority 2017, published 2020).)
